In one test the target is STK3 (Homo sapiens (Human), UniProt Q13188). The experiment in a line: ADP-Glo kinase assay, STK3. Format: biochemical. The procedure:
(§1) The STK3 kinase assay was performed in 5 μL reaction buffer containing 50 ng recombinant human STK3 protein (full length, SignalChem #S24-10G; Richmond, Canada), 250 μg/mL myelin basic protein (Sigma-Aldrich #M1891; St. Louis, MO, USA), and 50 μM ATP (Sigma-Aldrich #A7699). The STK4 kinase assay was performed in 5 μL reaction buffer containing 50 ng recombinant human STK4 protein (full length, SignalChem #S25-10G), 300 μg/mL Axltide (SignalChem #A16-58), and 50 μM ATP. […] Three experiments were performed, each in triplicate.
Background: In ADP-Glo the light output rises with the ADP produced.

The next test addresses STK4 (Homo sapiens (Human), UniProt Q13043). As to the kind of experiment: ADP-Glo kinase assay, STK4. Format: biochemical. Here is the method: as §1
Where [1] appears, read: ADP-Glo, 50 μM ATP, read-out: STK3 IC50.
Where [2] appears, read: ADP-Glo, 50 μM ATP, read-out: STK4 IC50.

Structures are written as SMILES. Like-named read-outs stand apart in the source and are kept apart here.

STK4, sequence (Q13043 whole entry): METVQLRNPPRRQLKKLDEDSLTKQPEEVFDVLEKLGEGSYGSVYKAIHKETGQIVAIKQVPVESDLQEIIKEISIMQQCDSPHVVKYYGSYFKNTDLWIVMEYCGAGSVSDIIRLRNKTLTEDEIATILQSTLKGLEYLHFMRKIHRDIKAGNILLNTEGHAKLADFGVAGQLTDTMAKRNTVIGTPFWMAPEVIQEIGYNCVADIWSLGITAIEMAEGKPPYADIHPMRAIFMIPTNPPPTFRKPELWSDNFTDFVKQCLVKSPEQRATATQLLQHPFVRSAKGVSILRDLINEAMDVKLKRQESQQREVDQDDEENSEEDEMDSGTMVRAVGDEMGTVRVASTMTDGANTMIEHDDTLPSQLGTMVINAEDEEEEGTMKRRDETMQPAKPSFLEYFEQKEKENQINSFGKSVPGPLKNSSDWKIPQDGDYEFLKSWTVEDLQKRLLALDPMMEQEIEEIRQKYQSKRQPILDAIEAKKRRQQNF
STK3, sequence (Q13188 whole entry): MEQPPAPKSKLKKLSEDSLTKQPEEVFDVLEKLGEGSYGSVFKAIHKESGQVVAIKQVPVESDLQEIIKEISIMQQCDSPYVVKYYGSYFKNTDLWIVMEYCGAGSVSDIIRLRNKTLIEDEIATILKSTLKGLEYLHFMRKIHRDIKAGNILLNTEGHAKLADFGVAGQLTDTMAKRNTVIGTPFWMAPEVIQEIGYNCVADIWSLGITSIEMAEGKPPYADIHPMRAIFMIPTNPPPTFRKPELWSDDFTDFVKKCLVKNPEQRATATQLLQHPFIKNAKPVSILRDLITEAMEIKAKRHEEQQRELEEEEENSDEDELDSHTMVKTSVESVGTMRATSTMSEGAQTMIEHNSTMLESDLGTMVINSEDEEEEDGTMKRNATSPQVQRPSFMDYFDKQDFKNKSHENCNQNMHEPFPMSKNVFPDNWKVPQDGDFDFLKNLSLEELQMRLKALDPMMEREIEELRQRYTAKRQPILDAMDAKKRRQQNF

Regarding `c1ccc(-c2c[nH]c3ncnc(N4CCOCC4)c23)cc1` [Compound 1, 4-(5-Phenyl-7H-pyrrolo[2,3-d]pyrimidin-4-yl)morpholine], the concentration for half-maximal inhibition (IC50) at STK3 (setting [1]) and on STK4 (setting [2]) was less than 1 µM throughout.
For `Fc1ccccc1-c1c[nH]c2ncnc(N3CCOCC3)c12` [Compound 3, 4-(5-(2-Fluorophenyl)-7H-pyrrolo[2,3-d]pyrimidin-4-yl)morpholine], on STK3 (setting [1]), the IC50 (usually the point on the concentration scale where inhibition reaches its midpoint) was less than 1 µM.
For the compound `COc1ccccc1-c1c[nH]c2ncnc(N3CCOCC3)c12` [Compound 4, 4-(5-(2-Methoxyphenyl)-7H-pyrrolo[2,3-d]pyrimidin-4-yl)morpholine], the half-maximal inhibitory concentration (IC50) at STK3 (setting [1]) was less than 1 µM.
The same measure, in the same setting: the value for `COc1cccc(-c2c[nH]c3ncnc(N4CCOCC4)c23)c1` [Compound 8, 4-(5-(3-Methoxyphenyl)-7H-pyrrolo[2,3-d]pyrimidin-4-yl)morpholine] was less than 1 µM.
At STK3, `Cc1ccc(-c2c[nH]c3ncnc(N4CCOCC4)c23)cc1` [Compound 9, 4-(5-(p-tolyl)-7H-pyrrolo[2,3-d]pyrimidin-4-yl)morpholine] registered a 50% inhibitory concentration (IC50) of 1 to 5 µM.
With `Fc1ccc(-c2c[nH]c3ncnc(N4CCOCC4)c23)cc1` [Compound 10, 4-(5-(4-Fluorophenyl)-7H-pyrrolo[2,3-d]pyrimidin-4-yl)morpholine], on STK3 (setting [1]), the IC50 is less than 1 µM.
On the same count and under the same terms, to `c1csc(-c2c[nH]c3ncnc(N4CCOCC4)c23)c1` [Compound 12, 4-(5-(Thiophen-2-yl)-7H-pyrrolo[2,3-d]pyrimidin-4-yl)morpholine] belongs less than 1 µM.
Still for that read-out and setting: the value for `c1coc(-c2c[nH]c3ncnc(N4CCOCC4)c23)c1` [Compound 13, 4-(5-(Furan-2-yl)-7H-pyrrolo[2,3-d]pyrimidin-4-yl)morpholine] was less than 1 µM; that for `c1nc(N2CCOCC2)c2c(-c3ccoc3)c[nH]c2n1` [Compound 14, 4-(5-(Furan-3-yl)-7H-pyrrolo[2,3-d]pyrimidin-4-yl)morpholine] was less than 1 µM; that for `CN(C)c1ncnc2[nH]cc(-c3cccc(Cl)c3)c12` [Compound 17, 5-(3-Chlorophenyl)-N,N-dimethyl-7H-pyrrolo[2,3-d]pyrimidin-4-amine] was less than 1 µM.
For `Clc1cccc(-c2c[nH]c3ncnc(NCC4CC4)c23)c1` [Compound 18, 5-(3-Chlorophenyl)-N-(cyclopropylmethyl)-7H-pyrrolo[2,3-d]pyrimidin-4-amine], the IC50 at STK3 (setting [1]) was less than 1 µM.
With `Clc1cccc(-c2n[nH]c3ncnc(N4CCOCC4)c23)c1` [Compound 19, 4-(3-(3-chlorophenyl)-1H-pyrazolo[3,4-d]pyrimidin-4-yl)morpholine], the IC50 against STK3 and at STK4 was 1 to 5 µM throughout.
As to `Clc1cccc(-c2csc3ncnc(N4CCOCC4)c23)c1` [Compound 20, 4-(5-(3-Chlorophenyl)thieno[2,3-d]pyrimidin-4-yl)morpholine], the half-maximal inhibitory concentration (IC50) on STK3 (setting [1]) is more than 5 µM.
On the same count and under the same terms, the value for `Clc1cccc(-c2coc3ncnc(N4CCOCC4)c23)c1` [Compound 21, 5-(3-Chlorophenyl)-4-morpholinofuro[2,3-d]pyrimidine] was more than 5 µM; that for `Clc1cccc(-c2c[nH]c3ccnc(N4CCOCC4)c23)c1` [Compound 22, 4-(3-(3-Chlorophenyl)-1H-pyrrolo[3,2-c]pyridin-4-yl)morpholin] was more than 5 µM.
With `Clc1ccccc1-c1c[nH]c2ncnc(N3CCOCC3)c12` [Compound 24, 4-(5-(2-Chlorophenyl)-7H-pyrrolo[2,3-d]pyrimidin-4-yl)morpholine], the IC50 on STK3 (setting [1]) and at STK4 (setting [2]) was 1 to 5 µM throughout.
`Clc1ccc(-c2c[nH]c3ncnc(N4CCOCC4)c23)cc1` [Compound 25, 4-(5-(4-Chlorophenyl)-7H-pyrrolo[2,3-d]pyrimidin-4-yl)morpholine]: the IC50 on STK3 (setting [1]) was less than 1 µM; at STK4 (setting [2]), 1 to 5 µM.
In the same order, the values of `COc1ccc(-c2c[nH]c3ncnc(N4CCOCC4)c23)cc1` [Compound 26, 4-(5-(4-methoxyphenyl)-7H-pyrrolo[2,3-d]pyrimidin-4-yl)morpholine] are 1 to 5 µM and less than 1 µM.
On the same counts, the results for `FC(F)(F)Oc1cccc(-c2c[nH]c3ncnc(N4CCOCC4)c23)c1` [Compound 27, 4-(5-(3-(trifluoromethoxy)phenyl)-7H-pyrrolo[2,3-d]pyrimidin-4-yl)morpholine] are 1 to 5 µM and 1 to 5 µM.
For `FC(F)(F)Oc1ccc(-c2c[nH]c3ncnc(N4CCOCC4)c23)cc1` [Compound 28, 4-(5-(4-(trifluoromethoxy)phenyl)-7H-pyrrolo[2,3-d]pyrimidin-4-yl)morpholine], the half-maximal inhibitory concentration (IC50) on STK3 (setting [1]) and at STK4 (setting [2]) was 1 to 5 µM each time.
Take `CC(=O)c1ccc(-c2c[nH]c3ncnc(N4CCOCC4)c23)cc1` [Compound 29, 1-(4-(4-morpholino-7H-pyrrolo[2,3-d]pyrimidin-5-yl)phenyl)ethan-1-one]: the IC50 on STK3 (setting [1]) is more than 5 µM; at STK4 (setting [2]), 1 to 5 µM.
On the same counts, the results for `Clc1ccc(-c2c[nH]c3ncnc(N4CCOCC4)c23)cc1Cl` [Compound 30, 4-(5-(3,4-dichlorophenyl)-7H-pyrrolo[2,3-d]pyrimidin-4-yl)morpholine] are 1 to 5 µM and 1 to 5 µM.
On the same counts, the results for `Clc1cc(-c2c[nH]c3ncnc(N4CCOCC4)c23)ccn1` [Compound 31, 4-(5-(2-chloropyridin-4-yl)-7H-pyrrolo[2,3-d]pyrimidin-4-yl)morpholine] are 1 to 5 µM and 1 to 5 µM.
For `Fc1cnc(Cl)cc1-c1c[nH]c2ncnc(N3CCOCC3)c12` [Compound 32, 4-(5-(2-chloro-5-fluoropyridin-4-yl)-7H-pyrrolo[2,3-d]pyrimidin-4-yl)morpholine], the IC50 on STK3 (setting [1]) was more than 5 µM; on STK4 (setting [2]), 1 to 5 µM.
In the case of `Fc1c(-c2c[nH]c3ncnc(N4CCOCC4)c23)ccnc1Cl` [Compound 33, 4-(5-(2-chloro-3-fluoropyridin-4-yl)-7H-pyrrolo[2,3-d]pyrimidin-4-yl)morpholine], the IC50 on STK3 (setting [1]) and at STK4 (setting [2]) was more than 5 µM each time.
Consider `Clc1ncccc1-c1c[nH]c2ncnc(N3CCOCC3)c12` [Compound 34, 4-(5-(2-chloropyridin-3-yl)-7H-pyrrolo[2,3-d]pyrimidin-4-yl)morpholine], for which the 50% inhibitory concentration (IC50) at STK3 (setting [1]) and on STK4 (setting [2]) was more than 5 µM each time.
`c1cc(-c2c[nH]c3ncnc(N4CCOCC4)c23)ccn1` [Compound 35, 4-(5-(pyridin-4-yl)-7H-pyrrolo[2,3-d]pyrimidin-4-yl)morpholine]: the IC50 at STK3 (setting [1]) and at STK4 (setting [2]) was more than 5 µM each time.
In the case of `c1ncc(-c2c[nH]c3ncnc(N4CCOCC4)c23)cn1` [Compound 36, 4-(5-(pyrimidin-5-yl)-7H-pyrrolo[2,3-d]pyrimidin-4-yl)morpholine], the concentration for half-maximal inhibition (IC50) on STK3 (setting [1]) and on STK4 (setting [2]) was more than 5 µM each time.
As for `Cc1cnccc1-c1c[nH]c2ncnc(N3CCOCC3)c12` [Compound 37, 4-(5-(3-methylpyridin-4-yl)-7H-pyrrolo[2,3-d]pyrimidin-4-yl)morpholine], the IC50 on STK3 (setting [1]) and at STK4 (setting [2]) was more than 5 µM each time.
For the compound `COc1ncc(-c2c[nH]c3ncnc(N4CCOCC4)c23)cn1` [Compound 38, 4-(5-(2-methoxypyrimidin-5-yl)-7H-pyrrolo[2,3-d]pyrimidin-4-yl)morpholine], the 50% inhibitory concentration (IC50) on STK3 (setting [1]) and at STK4 (setting [2]) was more than 5 µM in each case.
On to `CS(=O)(=O)c1cccc(-c2c[nH]c3ncnc(N4CCOCC4)c23)c1` [Compound 39, 4-(5-(3-(methylsulfonyl)phenyl)-7H-pyrrolo[2,3-d]pyrimidin-4-yl)morpholine], for which the IC50 at STK3 (setting [1]) and at STK4 (setting [2]) was more than 5 µM each time.
Turning to `CS(=O)(=O)c1ccc(-c2c[nH]c3ncnc(N4CCOCC4)c23)cc1` [Compound 40, 4-(5-(4-(methylsulfonyl)phenyl)-7H-pyrrolo[2,3-d]pyrimidin-4-yl)morpholine], the IC50 at STK3 (setting [1]) and at STK4 (setting [2]) was more than 5 µM each time.
For `Cn1cc(-c2c[nH]c3ncnc(N4CCOCC4)c23)cn1` [Compound 41, 4-(5-(1-methyl-1H-pyrazol-4-yl)-7H-pyrrolo[2,3-d]pyrimidin-4-yl)morpholine], the figures for the concentration for half-maximal inhibition (IC50) at STK3 (setting [1]) and at STK4 (setting [2]) were 1 to 5 µM and less than 1 µM, respectively.
As to `c1nc(N2CCOCC2)c2c(-c3cnoc3)c[nH]c2n1` [Compound 42, 4-(5-(isoxazol-4-yl)-7H-pyrrolo[2,3-d]pyrimidin-4-yl)morpholine], the values for the IC50 at STK3 (setting [1]) and on STK4 (setting [2]) were 1 to 5 µM and less than 1 µM, respectively.
For `Cc1noc(C)c1-c1c[nH]c2ncnc(N3CCOCC3)c12` [Compound 43, 4-(5-(3,5-dimethylisoxazol-4-yl)-7H-pyrrolo[2,3-d]pyrimidin-4-yl)morpholine], the IC50 on STK3 (setting [1]) and at STK4 (setting [2]) was more than 5 µM throughout.
For the compound `Clc1cccc(-c2c[nH]c3ncnc(N4CCCC4)c23)c1` [Compound 44, 5-(3-chlorophenyl)-4-(pyrrolidin-1-yl)-7H-pyrrolo[2,3-d]pyrimidine], the half-inhibitory concentration (IC50) on STK3 (setting [1]) and on STK4 (setting [2]) was less than 1 µM throughout.
With `CC(=O)N1CCN(c2ncnc3[nH]cc(-c4cccc(Cl)c4)c23)CC1` [Compound 45, 1-(4-(5-(3-chlorophenyl)-7H-pyrrolo[2,3-d]pyrimidin-4-yl)piperazin-1-yl)ethan-1-one], the IC50 on STK3 (setting [1]) was 1 to 5 µM; on STK4 (setting [2]) it was less than 1 µM.
For the compound `CC1(O)CCN(c2ncnc3[nH]cc(-c4cccc(Cl)c4)c23)CC1` [Compound 103, 1-(5-(3-chlorophenyl)-7H-pyrrolo[2,3-d]pyrimidin-4-yl)-4-methylpiperidin-4-ol], at STK3 (setting [1]), the IC50 was less than 1 µM.
Turning to `CCN(CCO)c1ncnc2[nH]cc(-c3cccc(Cl)c3)c12` [Compound 114, 2-((5-(3-chlorophenyl)-7H-pyrrolo[2,3-d]pyrimidin-4-yl)(ethyl)amino)ethan-1-ol], on STK3 (setting [1]), the IC50 is less than 1 µM.

These data come from patent US20250051337A1 (priority 2021, published 2025).
